{"source": "patent US9205071B2", "about": "“Arsenic compounds, their preparation methods and uses thereof” (Changzhou Hi-Tech District Multiple Dimension Industry …, priority 2009, dated 2015)", "key": {"HL-60 cells [1]": {"tested_on": "HL-60 cells", "test": "Cell proliferation test (MTT method)", "type": "cell-based", "details": "HL-60 cell proliferation, 48 h", "procedure": "Tested drugs with different concentrations were added, and repeated four wells for each drug concentration group, then continued to culture in a CO2 incubator. Cell proliferation was detected by MTT method 48 h after culture. 15 ul MTT (5 mg/ml) was added in each well, and continued to culture for 4 h. Suspension in the well was collected, centrifuged, and supernatant was discarded. 100 ul of DMSO was added into each well to completely dissolve formazan particles. The solution was sucked into the original well, the absorbance at 492 nm was detected by ELISA, and the inhibiting rate was calculated according to the formula CI=(1-A test group /A control group)×100%."}, "HL-60 cells [2]": {"tested_on": "HL-60 cells", "test": "Cell viability test (Trypan blue, live cell rate)"}}}
{"smiles": "O=[As]([O-])([O-])[O-].[Na+].[Na+].[Na+]", "note": "[Na3AsO4]", "values": [{"measurement": "Inhibiting rate", "setting": "HL-60 cells [1]; 7.5 uM", "value": 2.5, "unit": "%"}, {"measurement": "Inhibiting rate", "setting": "HL-60 cells [1]; 15 uM", "value": 7.9, "unit": "%"}, {"measurement": "Inhibiting rate", "setting": "HL-60 cells [1]; 30 uM", "value": 13.9, "unit": "%"}, {"measurement": "Inhibiting rate", "setting": "HL-60 cells [1]; 60 uM", "value": 24.5, "unit": "%"}, {"measurement": "live cell rate at 4 d after administration", "setting": "HL-60 cells [2]; 7.5 uM", "value": 93.11, "unit": "%"}, {"measurement": "live cell rate at 4 d after administration", "setting": "HL-60 cells [2]; 15 uM", "value": 89.06, "unit": "%"}, {"measurement": "live cell rate at 4 d after administration", "setting": "HL-60 cells [2]; 30 uM", "value": 75.36, "unit": "%"}, {"measurement": "live cell rate at 4 d after administration", "setting": "HL-60 cells [2]; 60 uM", "value": 60.06, "unit": "%"}, {"measurement": "live cell rate at 4 d after administration", "setting": "HL-60 cells [2]; 120 uM", "value": 43.11, "unit": "%"}]}
